Measurements from patent US5049694A, “Pharmaceutical composition having relaxing activity which contains a nitrate ester as active substance” (Cedona Pharmaceuticals B.V., priority 1988, dated 1991).
Read-outs that look alike come from different tables or passages of the source.

Key:
[1] = system: contracted strips of the rats' arota; test: relaxing potency in vitro on phenylefrine-contracted strips of rat aorta; format: cell-based, rat (male Wistar); settings: read-out: EC50 (concentration with which relaxation took place up to 50% of the contraction induced by 10^-7 M phenylefrine)
Description: The relaxing potency of the compounds as described is tested in vitro on contracted strips of the rats' arota. Male Wistar rates (200-220 g) are killed by decapitation. The thoracal aorta is removed and is helically cut into strips (length: ±10 mm, width: ±2 mm; 4 strips per rat).
The strips are suspended in organ baths filled with 20 ml of Krebs' medium with a constant temperature of 37° C. passing through O2 /CO2 (95/5) and subsequently for 2 h equilibrated under an isotonic load of 500 mg. The medium is renewed every 20 minutes.
After equilibration contraction takes place by addition of 10^-7M phenylefrine to the medium. After reaching the maximal contraction the composition with the organic nitrate ester to be tested in cumulative concentration steps is relaxed.
The degree of relaxation is expressed as a percentage of the maximal contraction (=100%) reached with 10^-7 M phenylefrine. The relaxing potency of the tested compounds is expressed as the EC50 : the concentration with which relaxation took place up to 50% of the contraction induced by 10^-7 M phenylefrine. From a number of compounds the EC50 -values have been stated in Table 1. For comparison the EC50 -values of glyceryltrinitrate and isosorbidedinitrate have also been included.

[2] = chronical administration, clinical; cited from earlier work
heart = settings: therapeutical use; cited from earlier work

For `O=[N+]([O-])OC(Cc1ccccc1)Cc1ccccc1` [Compound 23, 1,3-diphenyl-2-propanol nitrate], the EC50 ([1]; Rattus norvegicus) was 0.4 µM.
With `Cc1c(C)c(CCO[N+](=O)[O-])c(C)c(C)c1CCO[N+](=O)[O-]` [Compound 12, 1,4-bis(2-nitroxyethyl)-2,3,5,6-tetramethylbenzene] the EC50 ([1]; Rattus norvegicus) was 0.078 µM.
In the case of `O=[N+]([O-])OCC(CO[N+](=O)[O-])O[N+](=O)[O-]` [glyceryl trinitrate], the EC50 ([1]; rat thoracal aorta strips, contracted with 10^-7 M phenylefrine, cumulative concentrations, 37° C.) is listed as 0.0073 µM, the development of tolerance [2] is listed as “development of so-called tolerance” and the “need of oxygen to the heart” value (heart) is listed as “lower need of oxygen to the heart”. The “post-load of the heart” value (heart) was “also affected, be it to a lower extent” and the “pre-load of the heart” value (heart) was “diminish especially the pre-load of the heart”.
`O=[N+]([O-])OCCc1ccccc1` [Compound 1, 2-phenylethanol nitrate] showed an EC50 [1] of 0.12 µM.
For `O=[N+]([O-])OCC(CO[N+](=O)[O-])c1ccc2ccccc2c1` [Compound 10, 2-(2-naphthyl)-1,3-propanediol nitrate], the EC50 ([1]; Rattus norvegicus) was 0.013 µM.
In the case of `O=[N+]([O-])OCCc1cccc2ccccc12` [Compound 9, 2-(1-naphthyl)ethanol nitrate], the EC50 ([1]; Rattus norvegicus) is reported as 0.0042 µM.
`O=[N+]([O-])O[C@@H]1CO[C@H]2[C@@H]1OC[C@@H]2OC(c1ccccc1)c1ccccc1` [Compound 28, 2-diphenylmethyl-1,4:3,6-dianhydroglucitol nitrate] showed an EC50 ([1]; Rattus norvegicus) of 0.2 µM.
Work on `O=[N+]([O-])OCCc1ccc(CCO[N+](=O)[O-])cc1` [Compound 11, 1,4-bis(2-nitroxyethyl)benzene] yielded an EC50 ([1]; Rattus norvegicus) of 0.0046 µM.
Compound `O=[N+]([O-])OCCOC(c1ccccc1)c1ccccc1` [Compound 25, 2-diphenylmethoxyethanol nitrate] has an EC50 ([1]; Rattus norvegicus) of 0.25 µM.
